Laboratory results taken from the NIST ThermoML archive (doi:10.1021/acs.jced.8b00153).
Where “and” joins values, the source holds several entries; their conditions need not be identical. Equal entries are not always repeated.

Details: for surface tension liquid-gas: Drop volume; for viscosity / speed of sound / mass density / vapor or sublimation pressure: Liquid; for viscosity: Capillary tube (Ostwald / Ubbelohde) method; for speed of sound: Frequency=3 MHz, Single path-length method; for mass density: Vibrating tube method; for vapor or sublimation pressure: Ebulliometric method (Recirculating still)

CCc1cccs1 [2-ethylthiophene]
Details	surface tension liquid-gas [mN/m]	vapor or sublimation pressure [kPa]
278.15 K	32.36	–
280.65 K	32.11	–
283.15 K	31.8	–
285.65 K	31.55	–
288.15 K	31.24	–
290.65 K	30.98	–
292.41 K	–	0.8
293.15 K	30.66	–
293.45 K	–	0.84
295.65 K	30.44	–

Details	mass density	speed of sound [m/s]	viscosity [mPa·s]
278.15 K, 100 kPa	1008.35 kg/m3	1373.2	0.9347
280.65 K, 100 kPa	1005.86 kg/m3	1363.4	0.905
283.15 K, 100 kPa	1003.44 kg/m3 and 1003.37 kg/m3	1354.2	0.8766
283.15 K, 2000 kPa	1004.84 kg/m3	–	–
283.15 K, 5000 kPa	1007 kg/m3	–	–
283.15 K, 7000 kPa	1008.42 kg/m3	–	–
283.15 K, 10000 kPa	1010.51 kg/m3	–	–
283.15 K, 15000 kPa	1013.9 kg/m3	–	–
283.15 K, 20000 kPa	1017.18 kg/m3	–	–
283.15 K, 25000 kPa	1020.37 kg/m3	–	–
283.15 K, 30000 kPa	1023.45 kg/m3	–	–
283.15 K, 35000 kPa	1026.45 kg/m3	–	–
283.15 K, 40000 kPa	1029.36 kg/m3	–	–
283.15 K, 45000 kPa	1032.2 kg/m3	–	–
283.15 K, 50000 kPa	1034.96 kg/m3	–	–
283.15 K, 55000 kPa	1037.65 kg/m3	–	–
283.15 K, 60000 kPa	1040.28 kg/m3	–	–
283.15 K, 65000 kPa	1042.84 kg/m3	–	–
285.65 K, 100 kPa	1000.87 kg/m3	1344.7	0.8498
288.15 K, 100 kPa	998.47 kg/m3 and 998.38 kg/m3	1334.1	0.8244
288.15 K, 2000 kPa	999.91 kg/m3	–	–
288.15 K, 5000 kPa	1002.13 kg/m3	–	–
288.15 K, 7000 kPa	1003.59 kg/m3	–	–
288.15 K, 10000 kPa	1005.73 kg/m3	–	–
288.15 K, 15000 kPa	1009.2 kg/m3	–	–
288.15 K, 20000 kPa	1012.57 kg/m3	–	–
288.15 K, 25000 kPa	1015.82 kg/m3	–	–
288.15 K, 30000 kPa	1018.97 kg/m3	–	–
288.15 K, 35000 kPa	1022.04 kg/m3	–	–
288.15 K, 40000 kPa	1025.03 kg/m3	–	–
288.15 K, 45000 kPa	1027.9 kg/m3	–	–
288.15 K, 50000 kPa	1030.72 kg/m3	–	–
288.15 K, 55000 kPa	1033.47 kg/m3	–	–
288.15 K, 60000 kPa	1036.14 kg/m3	–	–
288.15 K, 65000 kPa	1038.73 kg/m3	–	–
290.65 K, 100 kPa	995.88 kg/m3	1325	0.8003
293.15 K, 100 kPa	993.45 kg/m3 and 993.38 kg/m3	1315.3	0.7772
293.15 K, 2000 kPa	994.92 kg/m3	–	–
293.15 K, 5000 kPa	997.2 kg/m3	–	–
293.15 K, 7000 kPa	998.7 kg/m3	–	–
293.15 K, 10000 kPa	1000.9 kg/m3	–	–
293.15 K, 15000 kPa	1004.46 kg/m3	–	–
293.15 K, 20000 kPa	1007.92 kg/m3	–	–
293.15 K, 25000 kPa	1011.25 kg/m3	–	–
293.15 K, 30000 kPa	1014.49 kg/m3	–	–
293.15 K, 35000 kPa	1017.62 kg/m3	–	–
293.15 K, 40000 kPa	1020.67 kg/m3	–	–
293.15 K, 45000 kPa	1023.61 kg/m3	–	–
293.15 K, 50000 kPa	1026.49 kg/m3	–	–
293.15 K, 55000 kPa	1029.29 kg/m3	–	–
293.15 K, 60000 kPa	1032.01 kg/m3	–	–
293.15 K, 65000 kPa	1034.65 kg/m3	–	–
295.65 K, 100 kPa	–	1305.8	0.7554
